The supplement of paper PMC11451515

Tested on: SEM cells
Test: cell viability relative to DMSO control; higher = less cytotoxic
Settings: 48 h
Summary of the method: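 Viability values are per-plate percentages of DMSO wells, with background from cell-free wells. Library compounds in DMSO were pin-dosed, in an 11-point threefold series from 47 μM to 0.79 nM, onto NOMO1 or SEM (500 cells/well) or P12-Ichikawa (1000 cells/well) leukemia cells in 1536-well plates (5 μl). Those cells had been adapted for at least four passages in each medium, and CellTiter-Glo One luminescence was read after 48 h at 37°C.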

[1] = HPLM + 10% dialyzed FBS, 0.000781 µM
[2] = HPLM + 10% dialyzed FBS, 0.00234 µM
[3] = HPLM + 10% dialyzed FBS, 0.00702 µM
[4] = HPLM + 10% dialyzed FBS, 0.0211 µM
[5] = HPLM + 10% dialyzed FBS, 0.0632 µM
[6] = HPLM + 10% dialyzed FBS, 0.19 µM
[7] = HPLM + 10% dialyzed FBS, 0.569 µM
[8] = HPLM + 10% dialyzed FBS, 1.71 µM
[9] = HPLM + 10% dialyzed FBS, 5.12 µM
[10] = HPLM + 10% dialyzed FBS, 15.4 µM
[11] = HPLM + 10% dialyzed FBS, 46.1 µM
[12] = RPMI 5 mM glucose + 10% FBS, 0.000781 µM
[13] = RPMI 5 mM glucose + 10% FBS, 0.00234 µM
[14] = RPMI 5 mM glucose + 10% FBS, 0.00702 µM
[15] = RPMI 5 mM glucose + 10% FBS, 0.0211 µM
[16] = RPMI 5 mM glucose + 10% FBS, 0.0632 µM
[17] = RPMI 5 mM glucose + 10% FBS, 0.19 µM
[18] = RPMI 5 mM glucose + 10% FBS, 0.569 µM
[19] = RPMI 5 mM glucose + 10% FBS, 1.71 µM
[20] = RPMI 5 mM glucose + 10% FBS, 5.12 µM
[21] = RPMI 5 mM glucose + 10% FBS, 15.4 µM
[22] = RPMI 5 mM glucose + 10% FBS, 46.1 µM
[23] = RPMI 5 mM glucose + 10% dialyzed FBS, 0.000781 µM
[24] = RPMI 5 mM glucose + 10% dialyzed FBS, 0.00234 µM
[25] = RPMI 5 mM glucose + 10% dialyzed FBS, 0.00702 µM
[26] = RPMI 5 mM glucose + 10% dialyzed FBS, 0.0211 µM
[27] = RPMI 5 mM glucose + 10% dialyzed FBS, 0.0632 µM
[28] = RPMI 5 mM glucose + 10% dialyzed FBS, 0.19 µM
[29] = RPMI 5 mM glucose + 10% dialyzed FBS, 0.569 µM
[30] = RPMI 5 mM glucose + 10% dialyzed FBS, 1.71 µM
[31] = RPMI 5 mM glucose + 10% dialyzed FBS, 5.12 µM
[32] = RPMI 5 mM glucose + 10% dialyzed FBS, 15.4 µM
[33] = RPMI 5 mM glucose + 10% dialyzed FBS, 46.1 µM

Row | Structure (SMILES) | cell viability [1] | cell viability [2] | cell viability [3] | cell viability [4] | cell viability [5] | cell viability [6] | cell viability [7] | cell viability [8] | cell viability [9] | cell viability [10] | cell viability [11] | cell viability [12] | cell viability [13] | cell viability [14] | cell viability [15] | cell viability [16] | cell viability [17] | cell viability [18] | cell viability [19] | cell viability [20] | cell viability [21] | cell viability [22] | cell viability [23] | cell viability [24] | cell viability [25] | cell viability [26] | cell viability [27] | cell viability [28] | cell viability [29] | cell viability [30] | cell viability [31] | cell viability [32] | cell viability [33]
1 | CN[C@@H]1[C@@H](O)[C@@H](O[C@@H]2[C@@H](O)[C@H](O[C@H]3O[C@H](CN)[C@@H](O)[C@H](O)[C@H]3O)[C@@H](N)C[C@H]2NC(=O)[C@@H](O)CN)OC[C@]1(C)O | 116% | 100% | 108% | 107% | 91.9% | 105% | 105% | 98.9% | 98% | 102% | 97.1% | 118% | 116% | 125% | 129% | 129% | 111% | 123% | 111% | 111% | 120% | 124% | 121% | 124% | 118% | 125% | 136% | 115% | 135% | 106% | 127% | 129% | 101%
2 | CCCCC(=O)O[C@]1(C(=O)CO)[C@H](C)C[C@H]2[C@@H]3CCC4=CC(=O)C=C[C@]4(C)[C@@]3(F)[C@@H](O)C[C@@]21C | 102% | 122% | 111% | 96.2% | 92.6% | 87.1% | 83.4% | 75.2% | 71% | 71.4% | 70.9% | 118% | 124% | 139% | 124% | 91.3% | 98.2% | 84.3% | 73.9% | 76.7% | 70.3% | 67.6% | – | – | – | – | – | – | – | – | – | – | –
3 | C[C@](Cc1c[nH]c2ccccc12)(NC(=O)OC1C2CC3CC(C2)CC1C3)C(=O)NC[C@H](NC(=O)CCC(=O)O)c1ccccc1 (stereo not given in full) | 88.1% | 87.3% | 112% | 106% | 124% | 129% | 121% | 123% | 116% | 126% | 120% | 96.8% | 82.8% | 110% | 121% | 105% | 149% | 148% | 135% | 128% | 125% | 132% | 113% | 91% | 121% | 126% | 118% | 137% | 134% | 142% | 136% | 168% | 123%
4 | CC(C)C1NC(=O)C(NC(=O)C2=C3\N=C\4/C(=C(C)\C(=O)\C(=C4C(=O)NC5C(C)OC(=O)C(C(C)C)N(C)C(=O)CN(C)C(=O)C6CCCN6C(=O)C(NC5=O)C(C)C)N)OC3=C(C)C=C2)C(C)OC(=O)C(C(C)C)N(C)C(=O)CN(C)C(=O)C7CCCN7C1=O (stereo not given) | 8.02% | 8.45% | 8.63% | 7.17% | 5.33% | 4.97% | 5.75% | 5.02% | 3.36% | 1.81% | 1.57% | 6.55% | 8.45% | 7.11% | 5.21% | 4.11% | 3.76% | 4.54% | 3.75% | 2.28% | 1.15% | 1.09% | 6.94% | 7.82% | 7.08% | 7.7% | 5.11% | 4.36% | 5.1% | 3.89% | 1.96% | 2.2% | 1.26%
5 | N[S+]([O-])(=O)C1=C(Cl)C=C2\N=C/N[S+]([O-])(=O)C2=C1 | 91.1% | 96.5% | 111% | 99% | 91.2% | 59.6% | 123% | 105% | 114% | 148% | 122% | 101% | 104% | 94.3% | 78.1% | 92.5% | 45.3% | 122% | 119% | 104% | 107% | 123% | 109% | 98.7% | 103% | 80.2% | 101% | 56.3% | 134% | 109% | 109% | 123% | 133%
6 | CC(C)(O)CC[C@@H](O)[C@](C)(O)[C@H]1CC[C@@]2(O)C/3=C/C(=O)[C@@H]4C[C@@H](O)[C@@H](O)C[C@]4(C)[C@H]3CC[C@]12C | 115% | 107% | 112% | 97.8% | 97.5% | 110% | 99.7% | 103% | 93.5% | 89.7% | 94.7% | 96.3% | 93.8% | 98.3% | 93.4% | 102% | 98.8% | 85.2% | 97.7% | 96.4% | 87% | 79.8% | 104% | 106% | 103% | 80.2% | 81.7% | 92.8% | 77.3% | 104% | 83.4% | 94.2% | 74.6%
7 | CC[S+](=O)([O-])c1cccc(-c2cc(C(=O)NC3CCN(C)CC3)c(C)c3[nH]c4ncc(C)cc4c23)c1 | 109% | 103% | 130% | 110% | 124% | 101% | 52.3% | 38.6% | 30.2% | 18.8% | 8.97% | 114% | 120% | 140% | 120% | 138% | 83.2% | 46.6% | 27.7% | 20.6% | 12.9% | 5.92% | 99.2% | 92.5% | 135% | 127% | 118% | 82.6% | 46% | 31.9% | 23.8% | 20.6% | 6.33%
